{"source": "ChEMBL document CHEMBL4602739", "about": "“Design and Synthesis of a Trifunctional Molecular System \"Programmed\" to Block Epidermal Growth Factor Receptor Tyrosine Kinase, Induce High Levels of DNA Damage, and Inhibit the DNA Repair Enzyme (Poly(ADP-ribose) Polymerase) in Prostate Cancer Cells” (J Med Chem, 2020)", "key": {"[1]": {"target": "T1, Epidermal growth factor receptor (Homo sapiens, UniProt P00533)", "T1 sequence (P00533 whole entry)": "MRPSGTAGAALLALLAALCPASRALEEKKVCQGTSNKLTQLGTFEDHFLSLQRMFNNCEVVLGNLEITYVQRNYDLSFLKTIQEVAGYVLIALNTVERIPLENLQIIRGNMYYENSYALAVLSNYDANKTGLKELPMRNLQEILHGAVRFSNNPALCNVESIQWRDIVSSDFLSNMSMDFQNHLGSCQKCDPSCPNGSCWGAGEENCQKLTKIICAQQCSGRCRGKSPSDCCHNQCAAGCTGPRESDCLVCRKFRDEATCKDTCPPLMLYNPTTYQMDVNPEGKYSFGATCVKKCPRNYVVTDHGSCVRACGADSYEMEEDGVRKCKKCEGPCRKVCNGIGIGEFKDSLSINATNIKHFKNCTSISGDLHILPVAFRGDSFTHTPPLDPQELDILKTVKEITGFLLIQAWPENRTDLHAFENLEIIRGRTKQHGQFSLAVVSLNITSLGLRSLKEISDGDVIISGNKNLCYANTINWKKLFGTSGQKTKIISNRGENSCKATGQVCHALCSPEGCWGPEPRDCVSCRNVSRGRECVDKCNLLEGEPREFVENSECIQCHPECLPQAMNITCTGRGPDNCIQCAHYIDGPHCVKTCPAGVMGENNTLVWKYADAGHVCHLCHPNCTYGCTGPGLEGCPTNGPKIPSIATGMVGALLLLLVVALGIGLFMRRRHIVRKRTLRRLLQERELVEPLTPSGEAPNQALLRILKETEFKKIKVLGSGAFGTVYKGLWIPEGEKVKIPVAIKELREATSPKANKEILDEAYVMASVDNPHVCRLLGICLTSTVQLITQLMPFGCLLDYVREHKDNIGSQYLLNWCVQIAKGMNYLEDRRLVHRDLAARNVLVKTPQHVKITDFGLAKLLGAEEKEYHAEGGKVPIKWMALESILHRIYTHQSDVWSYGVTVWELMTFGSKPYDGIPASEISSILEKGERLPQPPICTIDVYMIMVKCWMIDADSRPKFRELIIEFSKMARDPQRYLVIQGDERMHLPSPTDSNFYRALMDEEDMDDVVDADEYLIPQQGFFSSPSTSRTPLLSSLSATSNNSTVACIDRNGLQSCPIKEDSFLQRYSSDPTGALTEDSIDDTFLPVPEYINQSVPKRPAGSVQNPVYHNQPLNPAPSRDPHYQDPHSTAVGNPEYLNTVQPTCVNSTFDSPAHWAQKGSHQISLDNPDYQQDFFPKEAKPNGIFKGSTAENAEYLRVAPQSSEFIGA", "assay": "Inhibition of EGFR in human PC3 cells assessed as reduction in EGF-stimulated EGFR phosphorylation preincubated for 2 hrs followed by EGF stimulation and measured after 30 mins by Western blot analysis", "format": "cell-based", "details": "PC-3"}, "[2]": {"target": "T1, Epidermal growth factor receptor", "assay": "Inhibition of EGFR in human PC3 cells assessed as reduction in EGF-stimulated EGFR phosphorylation at <= 1 uM preincubated for 2 hrs followed by EGF stimulation and measured after 30 mins by Western blot analysis relative to control", "format": "cell-based", "details": "PC-3"}, "[3]": {"target": "T1, Epidermal growth factor receptor", "assay": "Inhibition of EGFR in human 22Rv1 cells assessed as reduction in EGF-stimulated EGFR phosphorylation preincubated for 2 hrs followed by EGF stimulation and measured after 30 mins by Western blot analysis", "format": "cell-based", "details": "CWR22R"}, "[4]": {"target": "T1, Epidermal growth factor receptor", "assay": "Inhibition of EGFR in human 22Rv1 cells assessed as reduction in EGF-stimulated EGFR phosphorylation at <= 1 uM preincubated for 2 hrs followed by EGF stimulation and measured after 30 mins by Western blot analysis relative to control", "format": "cell-based", "details": "CWR22R"}, "[5]": {"target": "T1, Epidermal growth factor receptor", "assay": "Inhibition of recombinant human N-terminal GST-tagged EGFR (668 to end residues) expressed in baculovirus infected Sf9 insect cells assessed as reduction in […] EGFR phosphorylation […] by TMB peroxidase substrate based assay"}, "[6]": {"target": "T1, Epidermal growth factor receptor", "assay": "Inhibition of EGFR in human PC3 cells assessed as reduction in EGF-stimulated ERK phosphorylation at 0.1 to 100 uM preincubated for 2 hrs followed by EGF stimulation and measured after 30 mins by Western blot analysis", "format": "cell-based", "details": "PC-3"}, "[7]": {"target": "T1, Epidermal growth factor receptor", "assay": "Inhibition of EGFR in human PC3 cells assessed as reduction in EGF-stimulated AKT phosphorylation at 0.1 to 100 uM preincubated for 2 hrs followed by EGF stimulation and measured after 30 mins by Western blot analysis", "format": "cell-based", "details": "PC-3"}, "[8]": {"assay": "Selectivity ratio of IC50 for EGFR (unknown origin) transfected in mouse NIH/3T3 cells to IC50 for EGFR in mouse NIH/3T3 cells", "format": "cell-based"}, "DNA [9]": {"system": "DNA", "assay": "Induction of DNA damage in human PC3 cells measured after 2 to 24 hrs by alkaline commet assay", "format": "cell-based", "details": "PC-3"}, "DNA [10]": {"system": "DNA", "assay": "Induction of DNA damage in human 22Rv1 cells measured after 2 to 24 hrs by alkaline commet assay", "format": "cell-based", "details": "CWR22R"}, "DNA [11]": {"system": "DNA", "assay": "Induction of DNA damage in human PC3 cells at 12.5 uM measured after 2 to 24 hrs by alkaline commet assay relative to busulfan", "format": "cell-based", "details": "PC-3"}, "DNA [12]": {"system": "DNA", "assay": "Induction of DNA damage in human 22Rv1 cells at 12.5 measured after 2 to 24 hrs by alkaline commet assay relative to busulfan", "format": "cell-based", "details": "CWR22R"}, "DNA [13]": {"system": "DNA", "assay": "Induction of DNA damage in human PC3 cells assessed as increase in gammaH2AX phosphorylation up to 20 uM measured after 48 hrs by Western blot analysis", "format": "cell-based", "details": "PC-3"}, "DNA [14]": {"system": "DNA", "assay": "Induction of DNA damage in human 22Rv1 cells assessed as increase in gammaH2AX phosphorylation up to 20 uM measured after 48 hrs by Western blot analysis", "format": "cell-based", "details": "CWR22R"}, "PC-3 [15]": {"system": "PC-3", "assay": "Inhibition of PARP in human PC3 cells assessed as reduction in auto-PARylation up to 20 uM measured after 48 hrs by Western blot analysis", "format": "cell-based"}, "CWR22R [16]": {"system": "CWR22R", "assay": "Inhibition of PARP in human 22Rv1 cells assessed as reduction in auto-PARylation up to 20 uM measured after 48 hrs by Western blot analysis", "format": "cell-based"}, "Homo sapiens": {"species": "Homo sapiens", "assay": "Selectivity ratio of IC50 for BRCA mutant (unknown origin) expressed in Cricetulus griseus VCA cells to IC50 for BRCA (unknown origin) expressed in Cricetulus griseus VCA cells", "format": "cell-based"}, "CWR22R [17]": {"system": "CWR22R", "assay": "Growth inhibition of human 22Rv1 cells after 5 days by SRB assay", "format": "functional, cell-based", "details": "22Rv1, 120 h"}, "PC-3 [18]": {"system": "PC-3", "assay": "Growth inhibition of human PC3 cells after 5 days by SRB assay", "format": "functional, cell-based", "details": "PC-3, 120 h"}, "DU-145": {"system": "DU-145", "assay": "Growth inhibition of human DU145 cells after 5 days by SRB assay", "format": "functional, cell-based", "details": "DU-145, 120 h"}, "[19]": {"assay": "Drug uptake in human 22Rv1 cells at 25 uM measured up to 6 hrs by LC-MS/MS analysis", "format": "ADME, cell-based", "details": "cwr22r"}, "[20]": {"assay": "Drug uptake in human 22Rv1 cells assessed as drug accumulation in perinuclear region at 10 uM measured after 2 hrs by confocal laser scanning microscopic analysis", "format": "ADME, cell-based", "details": "cwr22r"}, "[21]": {"assay": "Induction of 2'-Deoxyguanosine depurination at 0.1 mM measured after 24 hrs by LC-MS analysis", "details": "100 µM"}, "PC-3 [22]": {"system": "PC-3", "assay": "Inhibition of PARP in human PC3 cells assessed as reduction in auto-PARylation at 10 uM measured after 48 hrs by Western blot analysis", "format": "cell-based"}, "CWR22R [23]": {"system": "CWR22R", "assay": "Inhibition of PARP in human 22Rv1 cells assessed as reduction in auto-PARylation at 10 uM measured after 48 hrs by Western blot analysis", "format": "cell-based"}}, "note": "The source made the active and inactive calls. The calls are words filed in the database; no cut-off is given here."}
{"molecule": "CN(CCOS(=O)(=O)CCc1cn(CCCC(=O)N2CCN(C(=O)c3cc(Cc4n[nH]c(=O)c5ccccc45)ccc3F)CC2)nn1)c1ccc2ncnc(Nc3cccc(Br)c3)c2c1", "values": [{"measurement": "inhibition", "setting": "[1]", "result": "Dose-dependent effect"}, {"measurement": "inhibition", "setting": "[2]", "result": "34 to 45", "unit": "%"}, {"measurement": "inhibition", "setting": "[3]", "result": "Dose-dependent effect"}, {"measurement": "inhibition", "setting": "[4]", "result": "34 to 45", "unit": "%"}, {"measurement": "IC50", "setting": "[5]", "result": 0.326, "unit": "µM"}, {"measurement": "inhibition", "setting": "[6]", "result": "Active"}, {"measurement": "inhibition", "setting": "[7]", "result": "Active"}, {"measurement": "Ratio IC50", "setting": "[8]", "result": 7}, {"measurement": "Activity", "setting": "DNA [9]", "result": "Dose-dependent effect"}, {"measurement": "Activity", "setting": "DNA [10]", "result": "Dose-dependent effect"}, {"measurement": "fold change (FC)", "setting": "DNA [11]", "result": "3 to 6"}, {"measurement": "fold change (FC)", "setting": "DNA [12]", "result": "3 to 6"}, {"measurement": "Activity", "setting": "DNA [13]", "result": "Active"}, {"measurement": "Activity", "setting": "DNA [14]", "result": "Active"}, {"measurement": "inhibition", "setting": "PC-3 [15]", "result": "Active"}, {"measurement": "inhibition", "setting": "CWR22R [16]", "result": "Active"}, {"measurement": "Ratio IC50", "setting": "Homo sapiens", "result": "3 to 4"}, {"measurement": "IC50", "setting": "CWR22R [17]", "result": 1.9, "unit": "µM"}, {"measurement": "IC50", "setting": "PC-3 [18]", "result": 3, "unit": "µM"}, {"measurement": "IC50", "setting": "DU-145", "result": 3.2, "unit": "µM"}, {"measurement": "Drug uptake", "setting": "[19]", "result": "Active"}, {"measurement": "Drug uptake", "setting": "[20]", "result": "Active"}, {"measurement": "Drug metabolism", "setting": "[21]", "result": "Metabolite_Detected"}]}
{"molecule": "CS(=O)(=O)OCCCCOS(C)(=O)=O", "note": "[BUSULFAN]", "values": [{"measurement": "IC50", "setting": "CWR22R [17]", "result": 24.3, "unit": "µM"}, {"measurement": "IC50", "setting": "PC-3 [18]", "result": 36.2, "unit": "µM"}, {"measurement": "IC50", "setting": "DU-145", "result": 25.8, "unit": "µM"}]}
{"molecule": "O=C(c1cc(Cc2n[nH]c(=O)c3ccccc23)ccc1F)N1CCN(C(=O)C2CC2)CC1", "note": "[OLAPARIB]", "values": [{"measurement": "inhibition", "setting": "PC-3 [22]", "result": "Active"}, {"measurement": "inhibition", "setting": "CWR22R [23]", "result": "Active"}, {"measurement": "IC50", "setting": "CWR22R [17]", "result": 33.8, "unit": "µM"}, {"measurement": "IC50", "setting": "PC-3 [18]", "result": 20.6, "unit": "µM"}, {"measurement": "IC50", "setting": "DU-145", "result": 17.7, "unit": "µM"}]}
